Results as given in DBAASP.
Values after ≈ are worked out from the molar mass of the structure shown. Blank lines part the entries; values can stand above or below the compound they belong to.

Tests used:
Experiment in all cases: ≥ marks a high value that may be exact or a test limit, other limits are often not marked, values filed in µg/mL are converted to µM
[1] = tested on: Candida albicans ATCC 2002
[2] = tested on: Staphylococcus aureus ATCC 25923
[3] = tested on: Escherichia coli ATCC 25922
Bacillus subtilis = tested on: Bacillus subtilis
[4] = tested on: Pseudomonas aeruginosa Ps4
Escherichia coli = tested on: Escherichia coli
Listeria innocua = tested on: Listeria innocua
Micrococcus luteus = tested on: Micrococcus luteus
[5] = tested on: Salmonella enterica subsp. enterica serovar Enteritidis
[6] = tested on: Staphylococcus aureus ATCC BAA-1556
Pseudomonas aeruginosa = tested on: Pseudomonas aeruginosa
Escherichia coli B = tested on: Escherichia coli B
Staphylococcus aureus = tested on: Staphylococcus aureus
Bacillus subtilis 168 = tested on: Bacillus subtilis 168
[7] = tested on: Candida albicans F7-39/IDE99
[8] = tested on: Staphylococcus aureus ATCC 29213
Candida albicans = tested on: Candida albicans
Micrococcus luteus A270 = tested on: Micrococcus luteus A270

MIC [1]: 0.202 µM (≈ 0.586 µg/mL)
MIC [2]: 1.21 µM (≈ 3.52 µg/mL)
MIC [3]: 6.45 µM (≈ 18.8 µg/mL)
MIC (Bacillus subtilis): 1.21 µM (≈ 3.52 µg/mL)
Compound: CC[C@H](C)[C@H](NC(=O)[C@H](C)NC(=O)[C@H](CCCN=C(N)N)NC(=O)[C@H](Cc1ccc(O)cc1)NC(=O)[C@H](CC(C)C)NC(=O)[C@H](CC(N)=O)NC(=O)[C@H](Cc1ccc(O)cc1)NC(=O)CNC(=O)[C@H](C)NC(=O)[C@@H](NC(=O)[C@@H](NC(=O)[C@@H](NC(=O)[C@H](CCCN=C(N)N)NC(=O)[C@@H](NC(=O)[C@@H](NC(=O)[C@@H](NC(=O)[C@@H]1CCCN1C(=O)[C@H](Cc1c[nH]c2ccccc12)NC(=O)[C@H](Cc1ccccc1)NC(=O)[C@H](CCCN=C(N)N)NC(=O)[C@@H](N)CCCCN)C(C)C)C(C)C)[C@@H](C)CC)[C@@H](C)O)C(C)C)C(C)C)C(=O)N[C@@H](CCCCN)C(=O)N[C@@H](CCCCN)C(=O)N[C@@H](CCCCN)C(=O)O [KRFWPVVIRTVVAGYNLYRAIKKK]

MIC (Escherichia coli): 73 µM (≈ 212 µg/mL)
MIC (Listeria innocua): ≥ 73 µM
MIC (Micrococcus luteus): ≥ 85 µM
MIC [5]: ≥ 73 µM
Compound: CC(C)C[C@H](NC(=O)[C@H](C)NC(=O)[C@H](CC(N)=O)NC(=O)[C@H](C)NC(=O)[C@@H](NC(=O)CNC(=O)[C@H](C)NC(=O)[C@@H](NC(=O)[C@@H](NC(=O)[C@H](CCCCN)NC(=O)[C@H](CCC(N)=O)NC(=O)[C@H](Cc1ccccc1)NC(=O)[C@H](CC(=O)O)NC(=O)[C@H](C)NC(=O)[C@H](CCC(N)=O)NC(=O)[C@H](CC(C)C)NC(=O)[C@@H](NC(=O)[C@@H]1CCCN1C(=O)[C@@H](NC(=O)[C@H](Cc1ccccc1)NC(=O)[C@@H](N)Cc1ccccc1)[C@@H](C)O)C(C)C)C(C)C)C(C)C)C(C)C)C(=O)N[C@@H](C)C(=O)N[C@@H](Cc1cnc[nH]1)C(=O)N[C@@H](CCCN=C(N)N)C(=O)N[C@@H](Cc1ccc(O)cc1)C(=O)N[C@@H](Cc1cnc[nH]1)C(=O)O [FFTPVLQADFQKVVAGVANALAHRYH]

MIC (Pseudomonas aeruginosa): 38.3 µM (≈ 56.2 µg/mL)
MIC (Escherichia coli B): 2.7 µM (≈ 3.96 µg/mL)
MIC (Staphylococcus aureus): 5.3 µM (≈ 7.77 µg/mL)
MIC (Bacillus subtilis 168): 1.3 µM (≈ 1.91 µg/mL)
MIC [7]: 7 µM (≈ 10.3 µg/mL)
Compound: CC[C@H](C)[C@H](NC(=O)[C@H](Cc1cnc[nH]1)NC(=O)[C@H](CCCCN)NC(=O)[C@H](CC(C)C)NC(=O)[C@H](CC(C)C)NC(=O)[C@@H](NC(=O)[C@H](CCSC)NC(=O)[C@H](Cc1c[nH]c2ccccc12)NC(=O)[C@H](CCCCN)NC(=O)CN)[C@@H](C)O)C(=O)N[C@@H](CC(C)C)C(=O)N[C@@H](CCCCN)C(N)=O [GKWMTLLKHILK]

MIC [1]: 0.947 µM (≈ 2.34 µg/mL)
MIC [2]: 5.68 µM (≈ 14.1 µg/mL)
MIC [3]: 15.2 µM (≈ 37.5 µg/mL)
MIC (Bacillus subtilis): 15.2 µM (≈ 37.5 µg/mL)
Compound: CC[C@H](C)[C@H](NC(=O)[C@H](C)NC(=O)[C@H](CCCN=C(N)N)NC(=O)[C@H](Cc1ccc(O)cc1)NC(=O)[C@H](CC(C)C)NC(=O)[C@H](CC(N)=O)NC(=O)[C@H](Cc1ccc(O)cc1)NC(=O)CNC(=O)[C@H](C)NC(=O)[C@@H](NC(=O)[C@@H](NC(=O)[C@@H](NC(=O)[C@H](CCCN=C(N)N)NC(=O)[C@@H](NC(=O)[C@@H](NC(=O)[C@@H](NC(=O)[C@@H]1CCCN1C(=O)[C@@H](N)Cc1c[nH]c2ccccc12)C(C)C)C(C)C)[C@@H](C)CC)[C@@H](C)O)C(C)C)C(C)C)C(=O)N[C@@H](CCCCN)C(=O)N[C@@H](CCCCN)C(=O)N[C@@H](CCCCN)C(=O)O [WPVVIRTVVAGYNLYRAIKKK]

MIC [4]: ≥ 166 µM
Compound: CC[C@H](C)[C@H](NC(=O)[C@H](CC(N)=O)NC(=O)[C@H](CCCN=C(N)N)NC(=O)[C@H](CCC(N)=O)NC(=O)[C@H](Cc1c[nH]c2ccccc12)NC(=O)[C@@H](N)Cc1ccccc1)C(=O)N[C@@H](CCCN=C(N)N)C(=O)N[C@@H](CCCCN)C(=O)N[C@H](C(=O)N[C@@H](CCCCN)C(=O)N[C@@H](CCCCN)C(N)=O)C(C)C [FWQRNIRKVKK]

MIC [6]: 6.25 µM (≈ 7.86 µg/mL)
Compound: CC(C)C[C@H](NC(=O)[C@H](Cc1c[nH]c2ccccc12)NC(=O)[C@H](CCCN=C(N)N)NC(=O)[C@H](CC(C)C)NC(=O)[C@H](Cc1c[nH]c2ccccc12)NC(=O)[C@H](Cc1c[nH]c2ccccc12)NC(=O)[C@H](CC(C)C)NC(=O)[C@@H](N)Cc1c[nH]c2ccccc12)C(N)=O [WLWWLRWL]

MIC (Escherichia coli): 9 µM (≈ 14.3 µg/mL)
MIC (Listeria innocua): 1 µM (≈ 1.59 µg/mL)
MIC (Micrococcus luteus A270): 5 µM (≈ 7.93 µg/mL)
MIC [5]: 5 µM (≈ 7.93 µg/mL)
Compound: CC(C)C[C@H](NC(=O)[C@@H](N)Cc1ccccc1)C(=O)N[C@@H](CO)C(=O)N[C@@H](Cc1ccccc1)C(=O)N1CCC[C@H]1C(=O)N[C@H](C(=O)N[C@H](C(=O)N[C@@H](CCCCN)C(=O)N[C@H](C(=O)N[C@@H](Cc1ccc(O)cc1)C(=O)N[C@@H](Cc1ccccc1)C(=O)N1CCC[C@H]1C(=O)N[C@@H](Cc1cnc[nH]1)C(=O)O)[C@@H](C)O)[C@@H](C)O)[C@@H](C)O [FLSFPTTKTYFPH]

The remaining lines, values behind:

Compound: CC[C@H](C)[C@H](NC(=O)[C@@H](N)Cc1ccccc1)C(=O)N[C@@H](Cc1c[nH]c2ccccc12)C(=O)N[C@@H](CCCN=C(N)N)C(=O)N[C@@H](Cc1c[nH]c2ccccc12)C(=O)N[C@@H](CCCN=C(N)N)C(=O)N[C@@H](Cc1c[nH]c2ccccc12)C(=O)N[C@@H](CCCN=C(N)N)C(N)=O [FIWRWRWR]
MIC [4]: ≥ 47.9 µM

Compound: CC[C@H](C)[C@H](NC(=O)[C@H](CCCN=C(N)N)NC(=O)[C@@H](NC(=O)[C@H](CCCN=C(N)N)NC(=O)[C@H](CCCN=C(N)N)NC(=O)[C@H](CCC(N)=O)NC(=O)[C@H](Cc1c[nH]c2ccccc12)NC(=O)[C@@H](N)Cc1ccccc1)[C@@H](C)CC)C(=O)N[C@@H](CCCN=C(N)N)C(=O)N[C@@H](CCCN=C(N)N)C(N)=O [FWQRRIRIRR]
MIC [4]: ≥ 168 µM

Compound: CC(C)C[C@H](NC(=O)[C@H](Cc1c[nH]c2ccccc12)NC(=O)[C@H](CCCN=C(N)N)NC(=O)[C@H](CC(C)C)NC(=O)[C@H](Cc1c[nH]c2ccccc12)NC(=O)[C@H](Cc1c[nH]c2ccccc12)NC(=O)[C@@H](N)CC(C)C)C(N)=O [LWWLRWL]
MIC [6]: 12.5 µM (≈ 13.4 µg/mL)

Compound: CC(C)C[C@H](NC(=O)[C@H](CC(C)C)NC(=O)[C@H](CCCCN)NC(=O)[C@H](CC(C)C)NC(=O)[C@H](CC(C)C)NC(=O)[C@H](CC(C)C)NC(=O)[C@H](CC(C)C)NC(=O)[C@H](CC(C)C)NC(=O)[C@@H](N)CC(C)C)C(N)=O [LLLLLLKLL]
MIC [6]: ≥ 100 µM

Compound: CC(C)C[C@@H]1NC(=O)CNC(=O)[C@H](CO)NC(=O)[C@H](CC(C)C)NC(=O)CNC(=O)[C@@H](NC(=O)[C@H](CC(C)C)NC(=O)[C@@H](NC(=O)[C@H](CCCCN)NC(=O)[C@H](CCCCN)NC(=O)CNC(=O)[C@@H](NC(=O)CNC(=O)[C@H](CC(C)C)NC(=O)[C@@H](NC(=O)CNC(=O)[C@H](CO)NC(=O)[C@H](CC(C)C)NC(=O)[C@H](CC(C)C)NC(=O)CN)C(C)C)C(C)C)C(C)C)CSSC[C@@H](C(=O)O)NC1=O [GLLSGVLGVGKKVLCGLSGLC]
MIC (Escherichia coli): 2.37 µM (≈ 4.68 µg/mL)
MIC [3]: 5.73 µM (≈ 11.3 µg/mL)
MIC (Bacillus subtilis): 9.5 µM (≈ 18.7 µg/mL)
MIC (Staphylococcus aureus): 4.75 µM (≈ 9.36 µg/mL)
MIC [8]: 11.5 µM (≈ 22.6 µg/mL)
MIC (Candida albicans): 2.37 µM (≈ 4.68 µg/mL)
MIC [5]: ≥ 64.9 µM

Compound: CC[C@H](C)[C@H](NC(=O)[C@H](CCCCN)NC(=O)[C@H](CCCCN)NC(=O)[C@H](Cc1c[nH]c2ccccc12)NC(=O)[C@H](CC(N)=O)NC(=O)[C@@H](N)C(C)C)C(=O)N[C@@H](CC(C)C)C(=O)NCC(=O)N[C@@H](CCCCN)C(=O)N[C@H](C(=O)N[C@H](C(=O)N[C@@H](CCCCN)C(=O)N[C@H](C(=O)N[C@@H](C)C(=O)N[C@@H](CCCCN)C(N)=O)C(C)C)[C@@H](C)CC)[C@@H](C)CC [VNWKKILGKIIKVAK]
MIC (Pseudomonas aeruginosa): 14.4 µM (≈ 25 µg/mL)
MIC (Escherichia coli B): 1.4 µM (≈ 2.43 µg/mL)
MIC (Staphylococcus aureus): 9 µM (≈ 15.6 µg/mL)
MIC (Bacillus subtilis 168): 0.7 µM (≈ 1.22 µg/mL)
MIC [7]: 10 µM (≈ 17.4 µg/mL)

Compound: CC(C)C[C@H](NC(=O)[C@H](CC(C)C)NC(=O)[C@H](Cc1c[nH]c2ccccc12)NC(=O)[C@H](CCCCN)NC(=O)[C@H](CC(C)C)NC(=O)[C@H](CC(C)C)NC(=O)[C@H](CCCCN)NC(=O)[C@@H](N)CCCCN)C(=O)N[C@@H](CCCCN)C(N)=O [KKLLKWLLK]
MIC [6]: ≥ 100 µM
